{"source": "patent US12410164B2", "about": "“Heterocyclic compounds and medical use thereof” (FONDAZIONE TELETHON, priority 2018, dated 2025)", "molecular_target": "F508del-CFTR (Homo sapiens, UniProt P13569, DEL508-508)", "sequence (P13569 with tags, fused parts or gaps DEL508-508)": "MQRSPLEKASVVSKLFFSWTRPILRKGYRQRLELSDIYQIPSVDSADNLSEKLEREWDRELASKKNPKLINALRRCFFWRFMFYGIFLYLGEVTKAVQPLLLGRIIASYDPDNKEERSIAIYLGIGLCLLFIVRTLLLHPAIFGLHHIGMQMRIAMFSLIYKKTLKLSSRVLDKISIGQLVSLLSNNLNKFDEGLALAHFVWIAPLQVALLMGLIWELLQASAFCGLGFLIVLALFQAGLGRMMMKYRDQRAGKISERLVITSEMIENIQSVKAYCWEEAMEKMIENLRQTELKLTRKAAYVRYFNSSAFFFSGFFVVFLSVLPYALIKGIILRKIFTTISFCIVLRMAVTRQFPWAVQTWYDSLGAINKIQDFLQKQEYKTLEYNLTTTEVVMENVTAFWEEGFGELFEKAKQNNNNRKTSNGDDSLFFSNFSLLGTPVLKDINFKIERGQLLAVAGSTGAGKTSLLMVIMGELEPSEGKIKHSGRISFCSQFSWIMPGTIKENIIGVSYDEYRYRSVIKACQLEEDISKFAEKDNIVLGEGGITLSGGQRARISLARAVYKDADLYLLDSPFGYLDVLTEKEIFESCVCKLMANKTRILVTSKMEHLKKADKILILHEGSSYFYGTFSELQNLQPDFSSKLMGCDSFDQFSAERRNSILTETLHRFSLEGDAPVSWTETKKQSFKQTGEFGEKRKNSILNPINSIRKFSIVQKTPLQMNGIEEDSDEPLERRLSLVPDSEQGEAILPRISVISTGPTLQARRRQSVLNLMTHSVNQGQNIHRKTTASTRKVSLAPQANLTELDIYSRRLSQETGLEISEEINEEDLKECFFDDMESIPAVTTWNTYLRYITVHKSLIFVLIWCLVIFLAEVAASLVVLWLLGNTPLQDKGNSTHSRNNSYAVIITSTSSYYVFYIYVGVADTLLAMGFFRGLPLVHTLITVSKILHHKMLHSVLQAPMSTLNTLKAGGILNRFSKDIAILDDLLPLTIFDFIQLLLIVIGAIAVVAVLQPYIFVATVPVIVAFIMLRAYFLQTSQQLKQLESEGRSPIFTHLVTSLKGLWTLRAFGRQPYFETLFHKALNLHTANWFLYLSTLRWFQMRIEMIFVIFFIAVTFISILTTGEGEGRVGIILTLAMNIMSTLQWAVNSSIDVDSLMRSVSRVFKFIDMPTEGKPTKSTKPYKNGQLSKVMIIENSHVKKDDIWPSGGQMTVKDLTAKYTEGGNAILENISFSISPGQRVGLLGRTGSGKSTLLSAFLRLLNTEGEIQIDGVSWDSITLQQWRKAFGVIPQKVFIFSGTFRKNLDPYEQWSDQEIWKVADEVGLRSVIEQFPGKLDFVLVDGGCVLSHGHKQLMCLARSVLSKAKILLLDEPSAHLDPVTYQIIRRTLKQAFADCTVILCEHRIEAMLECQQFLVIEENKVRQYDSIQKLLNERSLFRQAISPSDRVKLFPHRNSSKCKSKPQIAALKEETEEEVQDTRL", "assay": "Analysis of F508del-CFTR localization by immunofluorescence in CFBE41o− cells", "assay_type": "cell-based", "design": "expressed in transfected cells; host or cells: CFBE41o- cells with expression of F508del-CFTR and HS-YFP (generated as in Sondo et al. 2011)", "settings": "compound 10 μM plus VX-809 1 μM, 24 hr", "procedure": "CFBE41o− cells were seeded in a 12-well μ-chamber (81201, Ibidi) at a density of 25.000 cells per well and treated with compounds for 24 hr. Cells were then rinsed with PBS and fixed by adding 100 μl per well of 10% neutral buffered formalin for 5 minutes at room temperature. After 3 washes with 300 μl of PBS, cells were permeabilized with PBS-Triton X-100 0.3% for 5 min, blocked with PBS-BSA 1% for 2 hr, and incubated overnight at 4° C. with 100 μl of primary antibody diluted in blocking solution. The CFTR antibody was ab570 mouse IgG1 (University of North Carolina at Chapel Hill, and Cystic Fibrosis Foundation Therapeutics, see Cui L, et al. J. Mol Biol 2007, 365, 981-994) diluted at 1:250. Following incubation with primary antibody, cells were rinsed three times with PBS and incubated with 100 μl of a solution of secondary goat anti-mouse Alexa Fluor-546 antibodies (Invitrogen A-11030) diluted in PBS-BSA 1% for 1 hour in the dark. After three further washes in PBS, cells were covered with mounting medium and coverslip, and then analysed using a laser-scanning confocal microscope SPE (Leica Microsystems).\nAs a second type of experiment, the localization of F508del-CFTR protein was evaluated by immunofluorescence. Cells were treated with compounds, then fixed and immunostained with antibodies against CFTR. Images were taken with a confocal microscope."}
{"smiles": "CCOC(=O)c1c(Br)c2c(n1Cc1cccc(C)c1)-c1[nH]c(=O)c(S(=O)(=O)c3ccccc3)cc1CC2", "note": "[PP028, Ethyl 3-bromo 1-(3-methylbenzyl)-8-oxo-7-(phenylsulfonyl)-4,5,8,9-tetrahydro-1H-pyrrolo[3,2-h]quinoline-2-carboxylate]", "values": [{"measurement": "F508del-CFTR localization", "result": "cause appearance of F508del-CFTR at the cell periphery"}]}
